Assay results reported in patent US20020169101A1, “Treatment of sexual dysfunction” (priority 1999, published 2002).

Experiments:
human NMB receptor (BB1) = molecular target: T1, human NMB receptor (BB1) (Homo sapiens, UniProt P28336); test: BB1 binding assay ([125I][Tyr4]bombesin displacement, CHO-K1 membranes); details: read-out: hBB1 Ki
T1 construct: expressed in transfected cells; membranes prepared from the cells
In short: (§1)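 Competition against <0.1 nM [125I][Tyr4]bombesin, 60 min for the NMB receptor and 90 min for the GRP receptor, using homogenised membranes of human-receptor-expressing CHO-K1 cells in pH 7.4 Tris buffer. Bound label was filtered and gamma-counted, with 1 μM bombesin as nonspecific. Ki values came from IC50 via Cheng-Prusoff.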

human GRP receptor (BB2) = molecular target: T2, human GRP receptor (BB2) (Homo sapiens, UniProt P30550); test: BB2 binding assay ([125I][Tyr4]bombesin displacement, CHO-K1 membranes); details: read-out: hBB2 Ki
T2 construct: expressed in transfected cells; membranes prepared from the cells
In short: as §1

[1] = system: sexual behaviour of normal male rats; test: Sexual behaviour of normal (sexually vigorous) male rats; type: in vivo, rat; details: Compound (1) 15 mg/kg or Fluoxetine 20 mg/kg i.p. 1 h before test
Method: The potentially stimulatory effect of Compound (1) on male sexual behaviour has been tested on sexually vigorous rats. Sprague Dawley male rats (Charles River, UK) were kept, 4 rats per cage, in a reversed lighting regime (12:12 hours, lights off at 5.00 h), with free access to food and water. The rats were pre-selected by being presented with a receptive female at 4 days intervals, i.e. every third day (having 2 clear days between presentations) until completing 6-7 […] of baseline determination. The animals showing consistently vigorous behaviour (ejaculatory latencies <300s) were chosen for further experiments (n—24). Animals were randomised into three groups. All animals received all three treatments following a latin-square design. Treatments were administered once a week, with a baseline test in between treatments (4 days intervals between baseline and test day). Treatments were Compound (1) (15 mg/kg, dissolved in 50% 2-hydroxypropyl-β-cyclodextrin in saline), vehicle, or Fluoxetine (20 mg/kg dissolved in 100% DMSO). All treatments were administered i.p. in a 1 ml/kg volume, 1 h before tests.
For all the sexual behaviour tests, the males were placed in an observation arena (50-60 cm diameter), starting 5 hours into the dark cycle and observed under red illumination. Three to 4 minutes after placing the male in the arena, a receptive female (ovariectomised, bearing a 7 mm Silastic implant of oestradiol benzoate) was introduced to the arena and the following parameters noted: Mount Latency: time (in seconds) taken between introduction of female and first mount. A maximum time of 15 minutes (900 seconds) was allowed, and the test terminated if no mounts were recorded within that time (FIG. 11), Intromission Latency: time (in seconds) taken between introduction of female and first intromission (FIG. 12), Number of Mounts: to reach ejaculation. When ejaculation was not reached, the number of mounts was not analyzed, Number of Intromissions: to reach ejaculation. When ejaculation was not reached, the number of intromissions was not analyzed (FIG. 13 is number of mounts+intromissions), Ejaculation Latency: time (in seconds) taken from first intromission to ejaculation. A maximum time of 30 minutes (1800 seconds) was given, and the test terminated if ejaculation was not achieved in that time (FIG. 14), and Refractory Period: time (in seconds) taken from ejaculation to the first mount of the next series of sexual activity. In those animals reaching ejaculation the test was terminated at the end of the refractory period, as indicated by the first mount of the next sexual cycle (FIG. 15).
A one-way ANOVA followed by Dunnett's t test was used to compare treated vs vehicle groups each day of testing, for all the sexual behaviour parameters. (*P<0.05, **P<0.01; n=15-16).

T1 sequence (P28336 whole entry): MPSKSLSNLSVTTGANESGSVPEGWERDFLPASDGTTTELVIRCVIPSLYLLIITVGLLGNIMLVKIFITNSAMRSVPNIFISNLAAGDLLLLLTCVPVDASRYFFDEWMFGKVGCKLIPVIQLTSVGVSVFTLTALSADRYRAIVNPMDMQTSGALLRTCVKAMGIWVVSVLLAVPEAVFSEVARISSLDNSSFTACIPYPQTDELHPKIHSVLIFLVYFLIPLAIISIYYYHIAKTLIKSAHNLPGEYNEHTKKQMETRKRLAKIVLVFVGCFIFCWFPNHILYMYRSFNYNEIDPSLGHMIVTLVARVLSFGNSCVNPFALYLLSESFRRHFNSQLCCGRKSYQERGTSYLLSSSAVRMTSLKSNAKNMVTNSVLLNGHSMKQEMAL
T2 sequence (P30550 whole entry): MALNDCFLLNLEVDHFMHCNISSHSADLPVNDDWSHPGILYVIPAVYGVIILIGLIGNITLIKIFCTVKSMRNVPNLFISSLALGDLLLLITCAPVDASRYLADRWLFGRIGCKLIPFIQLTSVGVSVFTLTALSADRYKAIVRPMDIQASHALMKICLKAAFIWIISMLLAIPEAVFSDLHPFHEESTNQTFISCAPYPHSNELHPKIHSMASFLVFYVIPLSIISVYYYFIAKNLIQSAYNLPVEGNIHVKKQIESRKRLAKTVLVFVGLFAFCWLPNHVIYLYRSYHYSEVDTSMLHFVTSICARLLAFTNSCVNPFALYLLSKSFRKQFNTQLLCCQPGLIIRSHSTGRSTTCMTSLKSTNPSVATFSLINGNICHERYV

Row | Ki (human NMB receptor (BB1)) [nM] | Ki (human GRP receptor (BB2)) [nM] | SMILES | Mount Latency ([1]; vs vehicle (FIG. 11)) | Intromission Latency ([1]; vs vehicle (FIG. 12)) | number of mounts and intromissions required to achieve ejaculation ([1]; vs vehicle (FIG. 13)) | Ejaculation Latency ([1]; vs vehicle (FIG. 14)) | Refractory Period ([1]; vs vehicle (FIG. 15))
1 | 0.25 | 46 | C[C@@](Cc1c[nH]c2ccccc12)(NC(=O)Nc1ccc([N+](=O)[O-])cc1)C(=O)NCC1(c2ccc(N)cc2)CCCCC1 [Compound 3, (2S)-N-{[1-(4-aminophenyl)cyclohexyl]methyl}-3-(1H-indol-3-yl)-2-methyl-2-{[(4-nitroanilino)-carbonyl]amino}propanamide] |  |  |  |  | 
2 |  |  | COc1ccc(C2(CNC(=O)[C@](C)(Cc3c[nH]c4ccccc34)NC(=O)Nc3ccc([N+](=O)[O-])cc3)CCCCC2)nc1 [Compound (1), (S) 3-(1H-Indol-3-yl)-N-[1-(5-methoxy-pyridin-2-yl)-cyclohexyl-methyl]-2-methyl-2-[3-(4-nitro-phenyl)-ureido]-propionamide] | no effect on any of the parameters studied | no effect on any of the parameters studied | no effect on any of the parameters studied | no effect on any of the parameters studied | no effect on any of the parameters studied
